Measurements from US12030904B2 (priority 2020, dated 2024).
Like-named read-outs stand apart in the source and are kept apart here.

Key:
[1] = system: Recombinant Respiratory Syncytial virus strain A2 containing the firefly luciferase reporter (RSV-Fluc); assay: microbe, parasite or virus in culture; type: cell-based; conditions: human respiratory syncytial virus, NHBE
MT4 cytotoxicity (CC50) = conditions: human, MT4 cells, MT4 CC50, Table 4
SARS-CoV-2 = assay: microbe, parasite or virus in culture; type: cell-based; conditions: Severe acute respiratory syndrome coronavirus 2, read-out: SARS EC50
[2] = 72 h, read-out: RSV-Fluc EC50 (NHBE), NHBE cells, three days, Table 2

| Compound | EC50 ([1]; read-out: RSV EC50, Table 4) | CC50 (MT4 cytotoxicity (CC50)) | EC50 [1, 2] | EC50 ([1]; read-out: RSV EC50, Table 2a) | EC50 (SARS-CoV-2) |
| --- | --- | --- | --- | --- | --- |
| CCCCCCCCCCCCCCCCOC[C@H](COP(=O)(O)OC[C@H]1O[C@@](C#N)(c2ccc3c(N)ncnn23)[C@H](O)[C@@H]1O)OCc1cc(F)cc(C#N)c1 [Example 119, [(2R,3S,4R,5R)-5-(4-Aminopyrrolo[2,1-f][1,2,4]triazin-7-yl)-5-cyano-3,4-dihydroxy-tetrahydrofuran-2-yl]methyl [(2R)-2-[(3-cyano-5-fluoro-phenyl)methoxy]-3-hexadecoxy-propyl] hydrogen phosphate] | 30 nM | 404 nM |  |  |  |
| CCCCCCCCCCCCCCCCCCOC[C@H](COP(=O)(O)OC[C@H]1O[C@@](C#N)(c2ccc3c(N)ncnn23)[C@H](O)[C@@H]1O)OCc1c(F)cccc1C#N [Example 65, ((2R,3S,4R,5R)-5-(4-aminopyrrolo[2,1-f][1,2,4]triazin-7-yl)-5-cyano-3,4-dihydroxytetrahydrofuran-2-yl)methyl ((R)-2-((2-cyano-6-fluorobenzyl)oxy)-3-(octadecyloxy)propyl) hydrogen phosphate] |  |  | 61 nM | 61 nM |  |
| CCCCCCCCCCCCCCCCCCOC[C@H](COP(=O)(O)OC[C@H]1O[C@@](C#N)(c2ccc3c(N)ncnn23)[C@H](O)[C@@H]1O)OCc1cc(Cl)cc(C#N)c1 [Example 68, ((2R,3S,4R,5R)-5-(4-aminopyrrolo[2,1-f][1,2,4]triazin-7-yl)-5-cyano-3,4-dihydroxytetrahydrofuran-2-yl)methyl ((R)-2-((3-chloro-5-cyanobenzyl)oxy)-3-(octadecyloxy)propyl) hydrogen phosphate] |  |  | 25 nM | 25 nM | 927 nM |
| CCCCCCCCCCCCCCCCCCOC[C@H](COP(=O)(O)OC[C@H]1O[C@@](C#N)(c2ccc3c(N)ncnn23)[C@H](O)[C@@H]1O)Oc1ccccc1 [Example 87, ((2R,3S,4R,5R)-5-(4-aminopyrrolo[2,1-f][1,2,4]triazin-7-yl)-5-cyano-3,4-dihydroxytetrahydrofuran-2-yl)methyl ((R)-3-(octadecyloxy)-2-phenoxypropyl) hydrogen phosphate] |  | 3100 nM |  |  |  |
| CCCCCCCCCCCCCCCCCCOC[C@H](COP(=O)(O)OC[C@H]1O[C@@](C#N)(c2ccc3c(N)ncnn23)[C@H](O)[C@@H]1O)Oc1ncccc1OC [Example 91, ((2R,3S,4R,5R)-5-(4-aminopyrrolo[2,1-f][1,2,4]triazin-7-yl)-5-cyano-3,4-dihydroxytetrahydrofuran-2-yl)methyl ((R)-2-((3-methoxypyridin-2-yl)oxy)-3-(octadecyloxy)propyl) hydrogen phosphate] | 46 nM | 454 nM |  |  |  |
| CCCCCCCCCCCCCCCCOC[C@H](COP(=O)(O)OC[C@H]1O[C@@](C#N)(c2ccc3c(N)ncnn23)[C@H](O)[C@@H]1O)OCc1ccc(F)c(C#N)c1 [Example 109, [(2R,3S,4R,5R)-5-(4-Aminopyrrolo[2,1-f][1,2,4]triazin-7-yl)-5-cyano-3,4-dihydroxy-tetrahydrofuran-2-yl]methyl [(2R)-2-[(3-cyano-4-fluoro-phenyl)methoxy]-3-hexadecoxy-propyl] hydrogen phosphate] | 347 nM |  |  |  | 1600 nM |
| CCCCCCCCCCCCCCCCCCOC[C@H](COP(=O)(O)OC[C@H]1O[C@@](C#N)(c2ccc3c(N)ncnn23)[C@H](O)[C@@H]1O)OCc1cc(C#N)cc(C#N)c1 [Example 26, ((2R,3S,4R,5R)-5-(4-aminopyrrolo[2,1-f][1,2,4]triazin-7-yl)-5-cyano-3,4-dihydroxytetrahydrofuran-2-yl)methyl ((R)-2-((3,5-dicyanobenzyl)oxy)-3-(octadecyloxy)propyl) hydrogen phosphate] |  |  | 19 nM | 19 nM | 650 nM |
| CCCCCCCCCCCCCCCCCCOC[C@H](COP(=O)(O)OC[C@H]1O[C@@](C#N)(c2ccc3c(N)ncnn23)[C@H](O)[C@@H]1O)Oc1cccc(OC)n1 [Example 88, ((2R,3S,4R,5R)-5-(4-aminopyrrolo[2,1-f][1,2,4]triazin-7-yl)-5-cyano-3,4-dihydroxytetrahydrofuran-2-yl)methyl ((R)-2-((6-methoxypyridin-2-yl)oxy)-3-(octadecyloxy)propyl) hydrogen phosphate] | 31 nM | 201 nM |  |  |  |
| CCCCCCCCCCCCCCCCCCOC[C@H](COP(=O)(O)OC[C@H]1O[C@@](C#N)(c2ccc3c(N)ncnn23)[C@H](O)[C@@H]1O)Oc1ccc(OC)cn1 [Example 89, ((2R,3S,4R,5R)-5-(4-aminopyrrolo[2,1-f][1,2,4]triazin-7-yl)-5-cyano-3,4-dihydroxytetrahydrofuran-2-yl)methyl ((R)-2-((5-methoxypyridin-2-yl)oxy)-3-(octadecyloxy)propyl) hydrogen phosphate] | 28 nM | 962 nM |  |  |  |
| CCCCCCCCCCCCCCCCCCOC[C@@H](CCc1cc(F)cc(C#N)c1)COP(=O)(O)OC[C@H]1O[C@@](C#N)(c2ccc3c(N)ncnn23)[C@H](O)[C@@H]1O [Example 86, ((2R,3S,4R,5R)-5-(4-aminopyrrolo[2,1-f][1,2,4]triazin-7-yl)-5-cyano-3,4-dihydroxytetrahydrofuran-2-yl)methyl ((R)-4-(3-cyano-5-fluorophenyl)-2-((octadecyloxy)methyl)butyl) hydrogen phosphate] | 430 nM | 22000 nM |  |  |  |
| CCCCCCCCCCCCCCCCCCOC[C@H](COP(=O)(O)OC[C@H]1O[C@@](C#N)(c2ccc3c(N)ncnn23)[C@H](O)[C@@H]1O)Oc1cncc(C#N)c1 [Example 84, ((2R,3S,4R,5R)-5-(4-aminopyrrolo[2,1-f][1,2,4]triazin-7-yl)-5-cyano-3,4-dihydroxytetrahydrofuran-2-yl)methyl ((R)-2-((5-cyanopyridin-3-yl)oxy)-3-(octadecyloxy)propyl) hydrogen phosphate] | 7 nM | 212 nM |  |  |  |
| CCCCCCCCCCCCCCCCCCOC[C@@H](COP(=O)(O)OC[C@H]1O[C@@](C#N)(c2ccc3c(N)ncnn23)[C@H](O)[C@@H]1O)Oc1ccccc1 [Example 38, ((2R,3S,4R,5R)-5-(4-aminopyrrolo[2,1-f][1,2,4]triazin-7-yl)-5-cyano-3,4-dihydroxytetrahydrofuran-2-yl)methyl ((S)-3-(octadecyloxy)-2-phenoxypropyl) hydrogen phosphate] |  |  |  | 281 nM | 10000 nM |
| CCCCCCCCCCCCCCCCCCCCOC[C@H](COP(=O)(O)OC[C@H]1O[C@@](C#N)(c2ccc3c(N)ncnn23)[C@H](O)[C@@H]1O)OCc1cc(F)cc(C#N)c1 [Example 125, ((2R,3S,4R,5R)-5-(4-aminopyrrolo[2,1-f][1,2,4]triazin-7-yl)-5-cyano-3,4-dihydroxytetrahydrofuran-2-yl)methyl ((R)-2-((3-cyano-5-fluorobenzyl)oxy)-3-(icosyloxy)propyl) hydrogen phosphate] | 129 nM | 2080 nM |  |  |  |
| CCCCCCCCCCCCCCCCCCOC[C@H](COP(=O)(O)OC[C@H]1O[C@@](C#N)(c2ccc3c(N)ncnn23)[C@H](O)[C@@H]1O)OCc1ccccc1Cl [Example 64, ((2R,3S,4R,5R)-5-(4-aminopyrrolo[2,1-f][1,2,4]triazin-7-yl)-5-cyano-3,4-dihydroxytetrahydrofuran-2-yl)methyl ((R)-2-((2-chlorobenzyl)oxy)-3-(octadecyloxy)propyl) hydrogen phosphate] |  |  | 42 nM | 42 nM | 735 nM |
| CCCCCCCCCCCCCCCCCCOC[C@H](COP(=O)(O)OC[C@H]1O[C@@](C#N)(c2ccc3c(N)ncnn23)[C@H](O)[C@@H]1O)Oc1cc(C#N)ccn1 [Example 99, [(2R,3S,4R,5R)-5-(4-Aminopyrrolo[2,1-f][1,2,4]triazin-7-yl)-5-cyano-3,4-dihydroxy-tetrahydrofuran-2-yl]methyl [(2R)-2-[(4-cyano-2-pyridyl)oxy]-3-octadecoxy-propyl]hydrogen phosphate] |  | 1780 nM |  |  |  |
| CCCCCCCCCCCCCCCCCCOC[C@H](COP(=O)(O)OC[C@H]1O[C@@](C#N)(c2ccc3c(N)ncnn23)[C@H](O)[C@@H]1O)OCc1ccccc1C#N [Example 50, ((2R,3S,4R,5R)-5-(4-aminopyrrolo[2,1-f][1,2,4]triazin-7-yl)-5-cyano-3,4-dihydroxytetrahydrofuran-2-yl)methyl ((R)-2-((2-cyanobenzyl)oxy)-3-(octadecyloxy)propyl) hydrogen phosphate] |  |  | 90 nM | 90 nM | 854 nM |
| CCCCCCCCCCCCCCCCCCOC[C@H](COP(=O)(O)OC[C@H]1O[C@@](C#N)(c2ccc3c(N)ncnn23)[C@H](O)[C@@H]1O)OCc1ccc(F)cc1 [Example 110, [(2R,3S,4R,5R)-5-(4-Aminopyrrolo[2,1-f][1,2,4]triazin-7-yl)-5-cyano-3,4-dihydroxy-tetrahydrofuran-2-yl]methyl [(2R)-2-[(4-fluorophenyl)methoxy]-3-octadecoxy-propyl] hydrogen phosphate] | 402 nM |  |  |  | 1200 nM |
| CCCCCCCCCCCCCCCCCCOC[C@H](COP(=O)(O)OC[C@H]1O[C@@](C#N)(c2ccc3c(N)ncnn23)[C@H](O)[C@@H]1O)OCc1cc(C#N)ccc1F [Example 66, ((2R,3S,4R,5R)-5-(4-aminopyrrolo[2,1-f][1,2,4]triazin-7-yl)-5-cyano-3,4-dihydroxytetrahydrofuran-2-yl)methyl ((R)-2-((5-cyano-2-fluorobenzyl)oxy)-3-(octadecyloxy)propyl) hydrogen phosphate] |  |  | 10 nM | 10 nM | 476 nM |
| CCCCCCCCCCCCCCCCCCOC[C@H](COP(=O)(O)OC[C@H]1O[C@@](C#N)(c2ccc3c(N)ncnn23)[C@H](O)[C@@H]1O)OCc1cccc(OC)c1 [Example 63, ((2R,3S,4R,5R)-5-(4-aminopyrrolo[2,1-f][1,2,4]triazin-7-yl)-5-cyano-3,4-dihydroxytetrahydrofuran-2-yl)methyl ((R)-2-((3-methoxybenzyl)oxy)-3-(octadecyloxy)propyl) hydrogen phosphate] |  |  | 33 nM | 3 nM | 1050 nM |
